Measurements published in patent US7601686B2, “Hepatitis C virus inhibitors” (Bristol-Myers Squibb Company, priority 2005, dated 2009).
Like-named read-outs stand apart in the source and are kept apart here.

Tests used:
[1] = system: HCV replicon in HUH-7 cells; assay: HCV replicon FRET assay; format: cell-based, Hepatitis C virus (strain 1b); conditions: Hepatitis C virus
Outline: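 HUH-7 cells stably carrying a genotype 1b subgenomic HCV replicon (neo selection) treated with compound for 4 days at 37 °C, 0.5% DMSO final. Cytotoxicity (CC50) from alamar Blue fluorescence after 4 h (ex 530/em 580 nm), before the FRET replication read-out.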

[2] = target: T1, human neutrophil elastase (HNE) (Homo sapiens, UniProt P08246); assay: Specificity assay, human neutrophil elastase; format: biochemical; conditions: 2 h enzyme-inhibitor pre-incubation; read-out: HLE activity in the specificity assays
T1 construct: purchased Sigma
T1 sequence (P08246 30-267): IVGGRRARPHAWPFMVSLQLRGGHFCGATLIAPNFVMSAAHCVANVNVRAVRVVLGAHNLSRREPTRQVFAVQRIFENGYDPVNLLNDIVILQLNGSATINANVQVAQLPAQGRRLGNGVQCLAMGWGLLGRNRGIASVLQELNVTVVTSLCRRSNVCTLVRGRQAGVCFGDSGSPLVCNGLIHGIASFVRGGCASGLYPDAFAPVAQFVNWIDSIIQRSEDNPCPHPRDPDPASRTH
Description: (§1) The specificities of compounds of the present disclosure were determined against a variety of serine proteases: human neutrophil elastase (HNE), porcine pancreatic elastase (PPE) and human pancreatic chymotrypsin and one cysteine protease: human liver cathepsin B. In all cases a 96-well plate format protocol using colorimetric p-nitroaniline (pNA) substrate specific for each enzyme was used as described previously (PCT Patent Application No. WO 00/09543) with some modifications to the serine protease assays. All enzymes were purchased from Sigma while the substrates were from Bachem.
(§2) Each assay included a 2 h enzyme-inhibitor pre-incubation at room temperature followed by addition of substrate and hydrolysis to ˜30% conversion as measured on a Spectramax Pro microplate reader. Compound concentrations varied from 100 to 0.4 μM depending on their potency.
(§3) The final conditions for each assay were the same as those described in WO 03/099274, page 623.
(§4) The percentage of inhibition was calculated using the formula: [1−((UVinh−UVblank)/(UVctl−UVblank))]×100
(§5) A non-linear curve fit was applied to the inhibition-concentration data, and the 50% effective concentration (IC50) was calculated by the use of Excel XLfit software.

human liver cathepsin B = target: T2, human liver cathepsin B (Homo sapiens, UniProt P07858); assay: Specificity assay, cathepsin B; format: biochemical; conditions: 2 h enzyme-inhibitor pre-incubation; read-out: Cathepsin B activity in the specificity assays
T2 construct: purchased Sigma; host or cells: human liver
Description: as §1, §2, §3, §4, §5

C=CC1CC1(NC(=O)[C@@H]1C[C@@H](NC(=O)c2cc(-c3ccccc3)nc3ccccc23)CN1C(=O)[C@@H](NC(=O)CC1CC1)C(C)(C)C)C(=O)NS(=O)(=O)C1CC1 (stereo partly shown) [Compound 9]
EC50 ([1]; HCV replicon cell assay, HUH-7, read-out: EC50 Range): 0.15 to 15 µM
EC50 ([1]; HCV replicon, HUH-7 cells, read-out: EC50 value in the replicon assay): 2.25 µM
IC50 [2]: > 100 µM
IC50 (human liver cathepsin B): > 100 µM
